Measured values: publication PMC7780097, “Asn‐linked N–acetylglucosamine of the amylin receptor 2 extracellular domain enhances peptide ligand affinity” (FEBS Open Bio, 2020)

Key:
CTR ECD = conditions: cited from earlier work
Description: The calcitonin receptor (CTR) is a class B GPCR for peptide hormone calcitonin that regulates calcium homeostasis. CTR has an ECD with four N‐glycosylation sites: N28, N73, N125, and N130. […] Unexpectedly, the crystal structures of Endo H‐treated/Asn‐linked GlcNAc‐containing CTR ECD were almost identical to the structure of glycan‐free CTR ECD with a subtle structural difference. Direct interaction between the Asn‐linked GlcNAc and peptide hormone sCT was not found in the crystal structures ruling out the hypothesis of direct interaction between them. We also examined whether CTR ECD residues near the Asn‐linked GlcNAc of N130 medi ...

[1] = molecular target: RAMP2 ECD:CTR ECD complex (Endo H‐treated CTR ECD WT) (Homo sapiens, UniProt O60895+P30988); assay: FP peptide binding assay, RAMP2 ECD 100 μM coincubation with Endo H-treated CTR ECD WT (AMY2 ECD); conditions: Discussion summary of Fig. 4B
Protocol: The expression and purification procedure of Endo H‐treated CTR ECD WT and N130D was previously reported. […] After TEV protease reaction, N‐glycans of the protein were trimmed with 1 : 10 ratio Endo H (w/w, Endo H : protein) overnight at 4 °C, while dialyzing to 25 mM MOPS (pH 6.5) and 150 mM NaCl. Next day, the pH was increased to pH 7.5 and the protein was purified with IMAC and following SEC. The final peak fractions were dialyzed to storage buffer and stored at −80 °C until use.
The expression and purification of glycan‐free RAMP2 ECD were previously reported except for using RAMP2.55‐140 instead of RAMP2.36‐140 [15]. Briefly, MBP‐Thrombin cleavage site‐hRAMP2.55‐140‐H6 was expressed in the E. coli strain Origami B DE3. The cells were lysed by sonication and spun down by centrifugation. The supernatant was purified with IMAC and following amylose affinity chromatography. Human α‐thrombin was used to cleave out MBP, and the reaction mixture was loaded to IMAC to remove untagged MBP and thrombin. The RAMP2 ECD was further purified with SEC, and the peak fractions were dialyzed to storage buffer and stored at −80 °C until use. RAMP2 ECD without an MBP‐tag was also purified as follows. hRAMP2.55‐140‐H6 was expressed in the E. coli strain Origami B DE3. The bacterial cells were lysed by sonication using Bioruptor® standard (Diagenode Inc., Denville, NJ, USA). […]

full‐length CTR = conditions: cited from earlier work
Description: The calcitonin receptor (CTR) is a class B GPCR for peptide hormone calcitonin that regulates calcium homeostasis. CTR has an ECD with four N‐glycosylation sites: N28, N73, N125, and N130. […] My colleagues and I reported that N‐glycosylation of CTR enhanced salmon calcitonin (sCT) affinity for CTR ECD by sevenfold and that the asp ...

[2] = molecular target: T1, glycosylated CTR ECD[N130D] (Homo sapiens, UniProt P30988, N130D); assay: FP peptide binding assay, glycosylated CTR ECD[N130D] with or without PNGase F treatment; conditions: heat‐inactivated PNGase F vs No PNGase F; Fig. 2A
T1 sequence (P30988 38-141 N130D): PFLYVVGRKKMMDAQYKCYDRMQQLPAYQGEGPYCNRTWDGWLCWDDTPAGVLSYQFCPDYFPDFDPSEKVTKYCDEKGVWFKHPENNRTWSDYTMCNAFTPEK
Protocol: (§1) pHLsec‐based vectors were used to obtain glycosylated CTR ECD from HEK293S GnTI^− cells as a secreted protein. Maltose‐binding protein (MBP) was fused to the CTR ECD to increase initial protein expression and purification.
(§2) MBP‐TEV cleavage site‐CTR ECD WT was expressed from HEK293S GnTI^− cells for 3 days after plasmid transfection with polyethyleneimine (PEI). All protein purification steps were performed at 4 °C, otherwise noted. The expressed protein was purified with immobilized Ni metal affinity chromatography (IMAC). The peak fractions were pooled and incubated with 1 : 5 ratio TEV protease (w/w, TEV protease: protein) for 6 h at 20 °C. The reaction mixture was spin‐concentrated (MWCO 10 kDa) and loaded to size‐exclusion chromatography (SEC). The fractions with expected CTR ECD WT molecular weight were collected, spin‐concentrated, and used for PNGase F reaction and following peptide binding assay. […]
(§3) The procedure of fluorescence polarization (FP) peptide binding assay was previously described [4]. FITC‐sCT(22–32), FITC‐AC413(6–25), and FITC‐AM(37–52)[S45W/Q50W] were used as fluorescence‐labeled peptide probes. […] A PolarStar Omega plate reader (BMG Labtech, Cary, NC, USA) or a SpectraiD5 (Molecular Devices, San Jose, CA, USA) was used to measure FP. Background‐subtracted fluorescence intensity was used to calculate anisotropy.

[3] = tested on: glycosylated CTR ECD[N130D]; assay: as above; conditions: PNGase F treatment vs No PNGase F treatment; Fig. 2A
Protocol: as §1, §2, §3

CTR = tested on: CTR; design: method as in PMID 15692146; conditions: cited from earlier work
AMY = tested on: AMY; design: method as in PMID 15692146; conditions: cited from earlier work
[4] = by the Asn‐linked GlcNAc of CTR N130

Chain of RAMP2 ECD:CTR ECD complex (Endo H‐treated CTR ECD WT) (P30988 38-141): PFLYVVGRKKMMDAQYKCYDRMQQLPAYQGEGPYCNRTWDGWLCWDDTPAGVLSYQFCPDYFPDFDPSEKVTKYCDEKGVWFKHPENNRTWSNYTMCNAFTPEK
Chain of RAMP2 ECD:CTR ECD complex (Endo H‐treated CTR ECD WT) (O60895 55-140): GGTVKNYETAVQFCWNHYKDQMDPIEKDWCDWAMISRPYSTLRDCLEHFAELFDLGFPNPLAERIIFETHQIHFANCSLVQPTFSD

Question: For salmon calcitonin [sCT], which “fold enhancement of affinity by N‐glycosylation” value (CTR ECD; N‐glycosylation of CTR) is on record?
Answer: sevenfold

Question: And the “decrease of dissociation rate” value (CTR ECD; [4])?
Answer: twofold

Question: What about the fold affinity enhancement (CTR ECD; [4]) of the same substance?
Answer: sixfold

Question: And the “increase of association rate” value (CTR ECD; [4])?
Answer: threefold

Question: And the “sCT affinity for AMY2 ECD, effect of the Asn‐linked GlcNAc of CTR N130” value [1]?
Answer: increased

Question: And the “affinity, effect of N‐glycosylation of CTR ECD N130” value (full‐length CTR)?
Answer: enhanced

Question: And the “effect of heat‐inactivated PNGase F on affinity” value [2]?
Answer: did not change

Question: And the “fold decrease in affinity” value [3]?
Answer: 1.7 fold

Question: And the agonist activity (CTR)?
Answer: high affinity agonist

Question: What about the agonist activity (AMY) of the same substance?
Answer: high affinity agonist
